In patent US6015820A, “4-Aryl-thio-pyridin-2(1H)-ones, medicines containing them and their uses in the treatment of illnesses linked to HIV” (priority 1995, dated 2000):
Where two headings read alike, the source gives them in different places.

Tests used:
Type in all cases: cell-based
[1] = cytotoxicity on non-infected cells (MTT test); conditions: human; Table 2; non-infected CEM-SS cells, MTT, 5 days
Method: In parallel experiments, the cytotoxicity of the molecules was measured on non-infected cells, after an incubation of 5 days in the presence of these molecules, by using a […] titration (MTT test) based on the ability of the mitochondrial dehydrogenases of the living cells to reduce 3-(4,5-dimethylthiazol-2-yl)-2,5-diphenyltetrazolium bromide in formazan (Mosmann et al. J. Immunol. Methods ([…]), 65, 55-63). The concentration cytotoxic at 50% (CC50) is the concentration at which the DO540 has been reduced to half and is calculated by using the program mentioned above.

[2] = test system: isolated virion HIV-1LAI; assay: infectivity of the isolated virion after treatment with inhibitors (HT4LacZ cells)
Method: H9 cells chronically infected with HIV-1LAI (10^8 /ml) were cocultivated with MT4 cells (10^8 /ml) for 48 hours in an RMPI medium supplemented by 10% of calf foetal serum (CFS). The cells were then removed by centrifugation and then the supernatant liquid was filtered (0.45 μm) to remove residual cells and cell debris.
After having been incubated with the various inhibitors, the viral supernatants (200 μl) were deposited in the filtering part of a VectaSpin tube (WHATMAN) fitted with an ANAPORE membrane of porosity 0.02 μm. For 10 minutes they were subjected to centrifugation, the acceleration of which reached 6000 g at the filtering membrane. The viral residuums thereby obtained (10-15 μl ) were washed 3 times under the same conditions with 500 μl of RPMI then restored to their initial volumes with RPMI containing 10% of CFS.
The HT4LacZ-1 cells were kept in a DMEM medium (glucose 4.5 g/l) supplemented with 10% of calf foetal serum in the presence of Gentamycin (50 mg/l). These cells stemmed from Hela cells in which had been cloned, on the one hand the gene coding for the human CD4 so as to render them susceptible to infection by the HIV (Chesebro and Wehrly, 1988, J. Virol., 62, 3779-3788), and on the other hand the gene for β-Galactosidase which, placed under the dependent of the LTR of the HIV-1 served as a marker for the viral infection (Rocancourt et al. (1990) J. Virol. 1990 64-6, 2660-2688). When the virus infects such cells after its integration into the cellular genome, the production of the regulatory protein TAT activates the LTR of the HIV. The result is an activation of the gene of β-Galactosidase which leads to its production in the intracellular medium and more particularly in the nucleus. It is this protein that serves as a marker of the infection.
The evening of day 0, the HT4LacZ-1 cells were diluted at the rate of 75000 cells per ml of medium. 100 μl of this suspension was then distributed over a flat bottomed plate with 96 wells and was cultivated overnight at 37° C. (5% of CO2).
The morning of day 1, the supernatant liquid was removed by aspiration. Each well was then complemented with 200 μl of the viral supernatant dilutions to be tested. Each dilution was made in a DMEM medium (glucose 4.5 g/l) supplemented with 10% of CFS. The plates were then placed in an environment at 37° C. in the presence of 5% of CO2.
After 48 hours of culture, the supernatant liquid was aspirated, then each well was washed 3 times in PBS before being complemented with 200 μl of developing buffer (Tris-HCl 50 mM pH=8.5, ONPG 5 mg/ml β-mercapto-ethanol 7 μl/ml Triton×100 0.05%). After 4 hours of incubation at 37° C., the optical density of each well was measured.
The concentration of each of the inhibitors of the IT of the HIV-1 was adjusted to 50 mM in DMSO. The later dilutions were carried out on RPMI 1640. 2 μl of suitable dilutions of each of these inhibitors were added to 198 μl of a freshly unfrozen viral suspension. After 3 hours of incubation at ambient temperature, these suspensions were filtered on 0.02 μ VecraSpin tubes, then washed 3 times with 500 μl of RPMI 1640. The viral residuums were then adjusted to 200 μL with the culture medium (RPMI-10% CFS), then tested with regard to their infectivity on HT4LacZ cells.

[3] = test system: HIV-1 LAI; assay: anti-HIV-1 activity: replication of HIV-1 LAI on CEM-SS cells
Method: The CEM-SS and the HIV-1 resistant to Nevirapine (N119) carrying a point mutation at codon 181 of the IT, were supplied respectively by P. NARA and D. RICHMAN through the intermediary of the AIDS Research and Reference Reagent Program, Division of AIDS, NIAID, NIH (USA) (Catalogue references : No. 776 and No. 1392).
The virus production was measured by quantifying the activity of the inverse transcriptase associated with viral particles released into the culture supernatant. In short, cells were infected with 100 TCID50 for 30 minutes; after adsorption of the virus, unbound particles were removed by two washings and the cells were cultivated in the presence of different concentrations of the compounds tested for 5 days before determining the viral production. The concentration inhibiting 50% of the viral multiplication (IC50) came from the computer plot of the median effect of the dose effect results (Chou et al. Elsevier Science Publishers, Cambridge U.K. (1985), 19-28).

[4] = Human immunodeficiency virus 1, 3 h, read-out: Activity of the isolated virions after treatment
[5] = Human immunodeficiency virus 1, 120 h, Table 2, HIV-1 LAI, CEM-SS cells, 5 days, read-out: IC50, anti-HIV-1 activity
[6] = Table 2, HIV-1 LAI, CEM-SS cells
[7] = Human immunodeficiency virus 1, 1 μM inhibitor, 3 h, 100 TCID50, compared with viral supernatant subjected to same treatments, mean of 1 to 4 experiments, read-out: Activity of the isolated virions after treatment
[8] = Human immunodeficiency virus 1, 10 μM inhibitor, 3 h, 100 TCID50, compared with viral supernatant subjected to same treatments, mean of 1 to 4 experiments, read-out: Activity of the isolated virions after treatment

With `Cc1cn([C@H]2C[C@H](N=[N+]=[N-])[C@@H](CO)O2)c(=O)[nH]c1=O` [AZT, reference compound] as the compound, how does the CC50 at 120 h [1] read?
Its CC50 at 120 h is > 100 µM.

And the activity at 1 µM [2, 4]?
Its activity at 1 µM is 99%.

What about the activity at 10 µM [2, 4] of the same compound?
The activity at 10 µM was 99%.

What about the “activity on the isolated virion (in words)” value (“activity … (in words)” for short) [2] of the same compound?
The value was “totally inactive”.

What about the IC50 [3, 5] of the same compound?
The IC50 was 0.003 µM.

And the IC50 ([3]; Human immunodeficiency virus 1, CEM-SS, Table 4, HIV-1 (LA1)/CEMSS, read-out: IC50)?
The IC50 was 0.00084 µM.

And the “SI (selectivity index)” value [3, 6]?
Its value is > 33333.

With `Nc1ccn([C@@H]2CS[C@H](CO)O2)c(=O)n1` [Compound 3TC] as the compound, how does the activity at 1 µM [2, 7] read?
Its activity at 1 µM is 100%.

And the activity at 10 µM [2, 8]?
Its activity at 10 µM is 100%.

And the “activity … (in words)” value [2]?
The value was “totally inactive”.

Which CC50 at 120 h [1] does the source give for `Cc1cnc(O)c([N+](=O)[O-])c1Sc1ccccc1` [Compound 7d, 5-methyl-3-nitro-4-phenylthio-pyridin-2(1H)-one] here?
The CC50 at 120 h was > 10 µM.

What about the IC50 [3, 5] of the same compound?
The IC50 was > 10 µM.

Which CC50 at 120 h [1] does the source give for `CCOCc1c[nH]c(=O)c([N+](=O)[O-])c1Sc1cc(C)cc(C)c1` [Compound 7g, 5-ethoxymethyl-3-nitro-4-(3', 5'-dimethylphenyl)thio-pyridin-2(1H)-one] here?
The CC50 at 120 h was > 10 µM.

What about the IC50 [3, 5] of the same compound?
Its IC50 is 0.005 µM.

What about the “SI (selectivity index)” value [3, 6] of the same compound?
The value was > 2000.

With `CCOCc1c[nH]c(=O)c(N)c1Sc1cc(C)cc(C)c1` [Compound 8g, 3-amino-5-ethoxymethyl-4-(3', 5'-dimethylphenyl)thio-pyridin-2(1H)-one] as the compound, how does the CC50 at 120 h [1] read?
Its CC50 at 120 h is > 10 µM.

And the IC50 [3, 5]?
The IC50 was 0.02 µM.

And the “SI (selectivity index)” value [3, 6]?
Its value is > 500.

Which CC50 at 120 h [1] does the source give for `Cc1cc(C)nc(Sc2c(C)c[nH]c(=O)c2[N+](=O)[O-])n1` [Compound 9a, 5-methyl-3-nitro-4-(4', 6'-dimethylpyrimidin-2-yl)thiopyridin-2(1H)-one] here?
Its CC50 at 120 h is 19.5 µM.

What about the IC50 [3, 5] of the same compound?
Its IC50 is 17.5 µM.

And the “SI (selectivity index)” value [3, 6]?
Its value is > 1.

Which CC50 at 120 h [1] does the source give for `Cc1cc(O)nc(Sc2c(C)cnc(O)c2[N+](=O)[O-])n1` [Compound 9b, 5-methyl-3-nitro-4-(4'-hydroxy-6'-methylpyrimidin-2-yl)thiopyridin-2(1H)-one] here?
The CC50 at 120 h was > 100 µM.

And the IC50 [3, 5]?
Its IC50 is > 100 µM.

For `Cc1c[nH]c(=O)c([N+](=O)[O-])c1Sc1nc2ccccc2[nH]1` [Compound 9c, 5-methyl-3-nitro-4-(benzimidazol-2-yl)thiopyridin-2(1H)-one], which CC50 at 120 h [1] is on record?
Its CC50 at 120 h is 54.5 µM.

What about the IC50 [3, 5] of the same compound?
Its IC50 is 43.5 µM.

And the “SI (selectivity index)” value [3, 6]?
Its value is > 1.

What does the source list for `Cc1c[nH]c(=O)c([N+](=O)[O-])c1Sc1nc2ccccc2o1` [Compound 9d, 5-methyl-3-nitro-4-(benzoxazol-2-yl)thiopyridin-2(1H)-one]?
CC50 at 120 h [1]: 16 µM; IC50 [3, 5]: 5.5 µM; SI (selectivity index) [3, 6]: > 2

Which results are given for `Cc1cnc(O)c([N+](=O)[O-])c1Sc1nc2ccccc2s1` [Compound 9e, 5-methyl-3-nitro-4-(benzothiazol-2-yl)thio-pyridin-2(1H)-one]?
CC50 at 120 h [1]: 13.5 µM; IC50 [3, 5]: 14.5 µM

With `Cc1c[nH]c(=O)c([N+](=O)[O-])c1SC1=NCCS1` [Compound 9f, 5-methyl-3-nitro-4-(thiazolin-2-yl) thio-pyridin-2(1H)-one] as the compound, how does the CC50 at 120 h [1] read?
Its CC50 at 120 h is 21.5 µM.

What about the IC50 [3, 5] of the same compound?
The IC50 was 17 µM.

What about the “SI (selectivity index)” value [3, 6] of the same compound?
Its value is > 1.

With `Cc1c[nH]c(=O)c([N+](=O)[O-])c1Sc1nccn1C` [Compound 9g, 5-methyl-3-nitro-4-(N-methylimidazol-2-yl)thio-pyridin-2(1H)-one] as the compound, how does the CC50 at 120 h [1] read?
Its CC50 at 120 h is 68.5 µM.

And the IC50 [3, 5]?
Its IC50 is 56 µM.

And the “SI (selectivity index)” value [3, 6]?
Its value is > 1.

With `Cc1c[nH]c(=O)c([N+](=O)[O-])c1Sc1ccccn1` [Compound 9h, 5-methyl-3-nitro-4-(2-pyridyl) thio-pyridin-2(1H)-one] as the compound, how does the CC50 at 120 h [1] read?
Its CC50 at 120 h is 28.5 µM.

And the IC50 [3, 5]?
Its IC50 is 18 µM.

What about the “SI (selectivity index)” value [3, 6] of the same compound?
The value was > 1.

For `Cc1cnc(O)c(N)c1Sc1nc2ccccc2o1` [Compound 10, 3-amino-5-methyl-4-(benzoxazol-2-yl)thio-pyridin-2(1H)-one], which CC50 at 120 h [1] is on record?
The CC50 at 120 h was 7.5 µM.

And the IC50 [3, 5]?
The IC50 was 8 µM.

For `Cc1cc(C)cc(Sc2c(C)c[nH]c(=O)c2NC=O)c1` [Compound 11a, 3-formamido-5-methyl-4-(3', 5'-dimethylphenyl)thio-pyridin-2(1H)-one], which CC50 at 120 h [1] is on record?
The CC50 at 120 h was > 100 µM.

What about the IC50 [3, 5] of the same compound?
Its IC50 is 6.6 µM.

What about the “SI (selectivity index)” value [3, 6] of the same compound?
Its value is > 15.

Which CC50 at 120 h [1] does the source give for `CCCCCCC(=O)Nc1c(Sc2cc(C)cc(C)c2)c(C)c[nH]c1=O` [Compound 11d, 3-heptanamido-5-methyl-4-(3', 5'-dimethylphenyl)thio-pyridin-2(1H)-one] here?
Its CC50 at 120 h is > 10 µM.

And the IC50 [3, 5]?
Its IC50 is > 10 µM.

Which CC50 at 120 h [1] does the source give for `Cc1cc(C)cc(Sc2c(C)cnc(O)c2NC(=O)Cc2ccccc2)c1` [Compound 11e, 5-methyl-3-phenylacetamido-4-(3', 5'-dimethylphenyl)thio-pyridin-2(1H)-one] here?
The CC50 at 120 h was > 10 µM.

And the IC50 [3, 5]?
Its IC50 is > 10 µM.

What does the source list for `CCOC(=O)Nc1c(Sc2cc(C)cc(C)c2)c(C)c[nH]c1=O` [Compound 11f, 5-methyl-3-N-ethoxycarbamoyl-4-(3', 5'-dimethylphenyl)thio-pyridin-2(1H)-one]?
CC50 at 120 h [1]: > 100 µM; IC50 [3, 5]: 7.5 µM; SI (selectivity index) [3, 6]: > 13

Which activity at 0.1 µM ([2]; Human immunodeficiency virus 1, 0.1 μM inhibitor, 3 h, 100 TCID50, compared with viral supernatant subjected to same treatments, mean of 1 to 4 experiments, read-out: Activity of the isolated virions after treatment) does the source give for `Cc1ccnc2c1NC(=O)c1cccnc1N2C1CC1` [Nevirapine] here?
The activity at 0.1 µM was 86%.

And the activity at 1 µM [2, 7]?
Its activity at 1 µM is 86%.

And the activity at 10 µM [2, 8]?
Its activity at 10 µM is 111%.

What about the “activity … (in words)” value [2] of the same compound?
Its value is “totally inactive”.

With `Cc1cn([C@H]2C=C[C@@H](CO)O2)c(=O)[nH]c1=O` [d4T] as the compound, how does the activity at 1 µM [2, 4] read?
The activity at 1 µM was 130%.

And the activity at 10 µM [2, 4]?
Its activity at 10 µM is 127%.

And the “activity … (in words)” value [2]?
Its value is “totally inactive”.

Which results are given for `O=c1[nH]cnc2c1ncn2[C@H]1CC[C@@H](CO)O1` [ddl]?
activity at 1 µM [2, 7]: 100%; activity at 10 µM [2, 8]: 100%; activity on the isolated virion (in words) [2]: totally inactive
